According to US11477982B2, “2-amino-5-oxyalkyl-pyrimidine derivatives and their use for controlling undesired plant growth” (Bayer CropScience Aktiengesellschaft, priority 2017, dated 2022):

Columns and labels:
Format in all cases: in vivo
[1] = system: SETVI: Setaria viridis; assay: Pre-emergence herbicidal effect; conditions: for Herbicidal action against SETVI: dosage 320 g/ha
Excerpt: (§1) 1. Pre-Emergence Herbicidal Effect and Crop Plant Compatibility
(§2) Seeds of monocotyledonous and dicotyledonous weed plants and crop plants are placed in plastic or wood fiber pots and covered with soil. The compounds of the invention, formulated in the form of wettable powders (WP) or as emulsion concentrates (EC), are then applied onto the surface of the covering soil as aqueous suspension or emulsion with addition of 0.5% additive at a water application rate of 600 l/ha (converted).
(§3) After the treatment, the pots are placed in a greenhouse and kept under good growth conditions for the trial plants. After about 3 weeks, the effect of the preparations is scored visually in comparison with untreated controls as percentages. For example, 100% activity=the plants have died, 0% activity=like control plants.

[2] = system: PHBPU: Ipomoea purpurea; assay: Pre-emergence herbicidal effect; conditions: for Herbicidal action against PHBPU: dosage 320 g/ha
Excerpt: as §1, §2, §3

[3] = system: LOLRI: Lolium rigidum; assay: Pre-emergence herbicidal effect; conditions: for Herbicidal action against LOLRI: dosage 320 g/ha
Excerpt: as §1, §2, §3

[4] = system: STEME: Stellaria media; assay: Pre-emergence herbicidal effect; conditions: for Herbicidal action against STEME: pre-emergence, dosage 320 g/ha
Excerpt: as §1, §2, §3

[5] = system: ALOMY: Alopecurus myosuroides; assay: Pre-emergence herbicidal effect; conditions: for Herbicidal action against ALOMY: dosage 320 g/ha
Excerpt: as §1, §2, §3

[6] = system: ECHCG: Echinochloa crus-galli; assay: Pre-emergence herbicidal effect; conditions: for Herbicidal action against ECHCG: dosage 320 g/ha
Excerpt: as §1, §2, §3

[7] = system: MATIN: Matricaria inodora; assay: Pre-emergence herbicidal effect; conditions: for Herbicidal action against MATIN: pre-emergence, dosage 320 g/ha
Excerpt: as §1, §2, §3

[8] = system: POLCO: Polygonum convolvulus; assay: Pre-emergence herbicidal effect; conditions: for Herbicidal action against POLCO: dosage 320 g/ha
Excerpt: as §1, §2, §3

[9] = system: HORMU: Hordeum murinum; assay: Pre-emergence herbicidal effect; conditions: for Herbicidal action against HORMU: pre-emergence, dosage 320 g/ha
Excerpt: as §1, §2, §3

[10] = system: AMARE: Amaranthus retroflexus; assay: Pre-emergence herbicidal effect; conditions: for Herbicidal action against AMARE: pre-emergence, dosage 320 g/ha
Excerpt: as §1, §2, §3

[11] = system: ABUTH: Abutilon theophrasti; assay: Pre-emergence herbicidal effect; conditions: for Herbicidal action against ABUTH: dosage 320 g/ha
Excerpt: as §1, §2, §3

[12] = system: VERPE: Veronica persica; assay: Pre-emergence herbicidal effect; conditions: dosage 320 g/ha
Excerpt: as §1, §2, §3

[13] = system: AVEFA: Avena fatua; assay: Pre-emergence herbicidal effect; conditions: dosage 320 g/ha
Excerpt: as §1, §2, §3

[14] = system: VIOTR: Viola tricolor; assay: Pre-emergence herbicidal effect; conditions: dosage 320 g/ha
Excerpt: as §1, §2, §3

[15] = system: SETVI: Setaria viridis; assay: Post-emergence herbicidal effect; conditions: dosage 320 g/ha
Method: (§4) 2. Post-Emergence Herbicidal Effect and Crop Plant Compatibility
(§5) Seeds of monocotyledonous and dicotyledonous weeds and crop plants are placed in sandy loam in plastic or wood-fiber pots, covered with soil and cultivated in a greenhouse under controlled growth conditions, 2 to 3 weeks after sowing, the test plants are treated at the one-leaf stage. The compounds of the invention, formulated in the form of wettable powders (WP) or as emulsion concentrates (EC), are then sprayed onto the green parts of the plants as aqueous suspension or emulsion with addition of 0.5% additive at a water application rate of 600 l/ha (converted). After the test plants had been kept in the greenhouse under optimum growth conditions for about 3 weeks, the activity of the preparations is rated visually in comparison to untreated controls. For example, 100% activity=the plants have died, 0% activity=like control plants.

[16] = system: STEME: Stellaria media; assay: Post-emergence herbicidal effect; conditions: dosage 320 g/ha
Method: as §4, §5

[17] = system: ECHCG: Echinochloa crus-galli; assay: Post-emergence herbicidal effect; conditions: dosage 320 g/ha
Method: as §4, §5

[18] = system: AMARE: Amaranthus retroflexus; assay: Post-emergence herbicidal effect; conditions: dosage 320 g/ha
Method: as §4, §5

[19] = system: ABUTH: Abutilon theophrasti; assay: Post-emergence herbicidal effect; conditions: dosage 320 g/ha
Method: as §4, §5

[20] = system: VERPE: Veronica persica; assay: Post-emergence herbicidal effect; conditions: dosage 320 g/ha
Method: as §4, §5

[21] = system: VIOTR: Viola tricolor; assay: Post-emergence herbicidal effect; conditions: dosage 320 g/ha
Method: as §4, §5

[22] = Table 4a, pre-emergence, dosage 20 g of a.i./ha
[23] = Table 4b, pre-emergence as titled, dosage 80 g of a.i./ha
[24] = Table 4a, dosage 20 g of a.i./ha

SMILES | Herbicidal action against SETVI ([1]; pre-emergence) | Herbicidal action against PHBPU [2] | Herbicidal action against LOLRI [3] | Herbicidal action against STEME [4] | Herbicidal action against ALOMY ([5]; pre-emergence) | Herbicidal action against ECHCG ([6]; pre-emergence) | Herbicidal action against MATIN [7] | Herbicidal action against POLCO [8] | Herbicidal action against HORMU [9] | Herbicidal action against AMARE [10] | Herbicidal action against ABUTH [11] | Herbicidal action against VERPE [12] | Herbicidal action against AVEFA [13] | Herbicidal action against VIOTR [14] | Herbicidal action against SETVI [15] | Herbicidal action against STEME [16] | Herbicidal action against ECHCG [17] | Herbicidal action against AMARE [18] | Herbicidal action against ABUTH [19] | Herbicidal action against VERPE [20] | other results
CC1Cc2ccccc2C1Nc1ncc(C(C)(C)O)cn1 (mixture of isomers) [Example 1.55] | 100% | 90% | 100% | 100% | 90% | 100% | 100% | 100% | 100% | 100% | 100% | 100% | 100% | 100% | 100% | 90% | 100% | 90% | 90% | 90% | Herbicidal action against VIOTR [21]: 90%
Cc1ccc2c(c1)C(Nc1ncc(C(C)(C)O)cn1)CCC2 (racemic) [Example 1.43] | 100% | 100% | 100% | 100% | 100% | 100% | 100% | 100% | 100% | 100% | 100% | 100% | 100% | 100% | 90% | 100% | 100% | 90% | 90% | 90% | Herbicidal action against VIOTR [21]: 90%
Cc1ccc2c(c1)C(Nc1ncc(C(C)(C)O)c(C)n1)CCC2 (racemic) [Example 1.52] | 100% | 100% | 100% | 100% | 100% | 100% | 100% | 100% | 100% | 100% | 100% | 100% | 100% | 100% | 80% | 100% | 100% | 90% | 90% | 90% | Herbicidal efficacy against SETVI [1, 22]: 100; Herbicidal efficacy against SETVI [1, 23]: 80; Herbicidal efficacy against PHBPU [2, 24]: 100; Herbicidal efficacy against LOLRI [3, 24]: 60; Herbicidal efficacy against STEME [4, 23]: 90; Herbicidal efficacy against ALOMY [5, 22]: 90; Herbicidal efficacy against ALOMY [5, 23]: 90; Herbicidal efficacy against ECHCG [6, 22]: 100; Herbicidal efficacy against ECHCG [6, 23]: 70; Herbicidal efficacy against MATIN [7, 23]: 70; Herbicidal efficacy against POLCO [8, 24]: 100; Herbicidal efficacy against HORMU [9, 23]: 90; Herbicidal efficacy against AMARE [10, 23]: 80; Herbicidal efficacy against ABUTH [11, 24]: 100; Herbicidal action against VIOTR [21]: 90%
Cc1ccc2c(c1)[C@H](Nc1ncc(C(C)(C)O)cn1)CC2 [Example 1.5] | 100% | 100% | 100% | 100% | 100% | 100% | 100% | 100% | 100% | 100% | 100% | 100% | 100% | 100% | 90% | 100% | 100% | 100% | 100% | 90% | Herbicidal action against VIOTR [21]: 90%
CCC(O)(CC)c1cnc(N[C@H]2c3cc(C)ccc3C[C@@H]2C)nc1 [Example 1.10] | 100% | 80% | 100% | 100% | 100% | 100% | 100% | 100% | 100% | 100% | 100% | 100% | 100% | 100% | 80% | 100% | 100% | 90% | 90% | 90% | Herbicidal action against VIOTR [21]: 90%
Cc1ccc2c(c1)[C@H](Nc1ncc(C(C)(O)C(F)(F)F)cn1)[C@@H](C)C2 (some centres unmarked) [Example 1.11] | 100% | 80% | 100% | 100% | 100% | 100% | 100% | 100% | 100% | 100% | 100% | 100% | 100% | 100% | 100% | 100% | 100% | 100% | 90% | 90% | Herbicidal action against VIOTR [21]: 90%
Cc1ccc2c(c1)[C@H](Nc1ncc(C(C)(C)O)c(C)n1)CC2 [Example 1.12] | 100% | 100% | 100% | 100% | 100% | 100% | 100% | 100% | 100% | 100% | 100% | 100% | 100% | 100% | 100% | 100% | 100% | 90% | 90% | 90% | Herbicidal action against VIOTR [21]: 80%
